Measured values published in ChEMBL document CHEMBL5370641, “Structure-Based Optimization and Biological Evaluation of Potent and Selective MMP-7 Inhibitors for Kidney Fibrosis” (J Med Chem, 2023).
Activity calls are given as the source filed them. No cut-off for these calls is given here. Numbered stars: 1 amine (or outer) side, 2 acyl side, 3 side chain; on linkers, the order of the positions; unused ones are H or OH. Square brackets hold non-standard residues; d marks the D form. Peptide text beside a SMILES is read from it. * marks the point of attachment. Benzenesulfonyl(4-Cl,3-CF3) = O=S(=O)(c1ccc(Cl)c(C(F)(F)F)c1)*; Phe(4-CF3) = N[C@@H](Cc1ccc(C(F)(F)F)cc1)C(=O)O; Phe(4-I) = N[C@@H](Cc1ccc(I)cc1)C(=O)O; γGlu = O=C(O)[C@H](CCC(=O)[*:2])N[*:1]; hPhe = N[C@@H](CCc1ccccc1)C(=O)O; 3Pal = N[C@@H](Cc1cccnc1)C(=O)O; Phg = N[C@H](C(=O)O)c1ccccc1; Tle = CC(C)(C)[C@H](N)C(=O)O; β3hP = O=C(O)C[C@@H]1CCCN1

How the values were obtained:
[1] = target: T1, Matrilysin (Homo sapiens, UniProt P09237); test: Inhibition of recombinant human MMP7 using MOCAc-Pro-Leu-Gly-Leu-A2pr-(Dnp)-Ala-Arg-NH2 as substrate preincubated with compound for 15 mins followed by substrate addition and measured after 2 hrs by fluorescence based analysis
T1 sequence (P09237 whole entry): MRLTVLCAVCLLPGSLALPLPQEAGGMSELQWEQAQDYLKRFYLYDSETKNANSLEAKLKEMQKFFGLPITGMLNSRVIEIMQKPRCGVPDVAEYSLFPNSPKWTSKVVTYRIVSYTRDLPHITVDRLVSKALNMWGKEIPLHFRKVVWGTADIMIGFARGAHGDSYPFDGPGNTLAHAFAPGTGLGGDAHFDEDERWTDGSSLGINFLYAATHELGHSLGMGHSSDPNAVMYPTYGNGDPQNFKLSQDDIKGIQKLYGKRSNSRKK

[2] = target: Matrix metalloproteinase-14 (Homo sapiens, UniProt P50281); test: Inhibition of recombinant human MMP14 using MOCAc-Lys-Pro-Leu-Gly-Leu-A2pr(Dnp)-Ala-Arg-NH2 as substrate preincubated with compound for 15 mins followed by substrate addition and measured after 1 hrs by fluorescence based analysis
[3] = system: Mus musculus; test: Antifibrotic activity against unilateral ureteric obstruction induced C57BL/6J mouse model of renal fibrosis assessed as reduction in renal collagen at 0.1 mg/ml preadministered with compound via drinking water for 7 days followed by UUO surgery and measured after 7 days; assay type: functional, organism-based; settings: route po, time 14.0 day

SMILES | IC50 [1] | IC50 [2] | Activity [3]
CC(C)(C)[C@H](NC(=O)[C@H](Cc1ccc(C(F)(F)F)cc1)NC(=O)CNC(=O)CC[C@H](NS(=O)(=O)c1ccc(Cl)c(C(F)(F)F)c1)C(=O)O)C(=O)N1CCC[C@H]1CC(N)=O ({Benzenesulfonyl(4-Cl,3-CF3)-γGlu}-G[Phe(4-CF3)][Tle][β3hP]-NH2) | 10 nM | 1700 nM | –
CCCCc1nc(Cl)c(CO)n1Cc1ccc(-c2ccccc2-c2nnn[nH]2)cc1 | – | – | Active
CC(C)(C)[C@H](NC(=O)[C@@H](NC(=O)CNC(=O)CC[C@H](NS(=O)(=O)c1ccc(Cl)c(C(F)(F)F)c1)C(=O)O)c1ccccc1)C(=O)N1CCC[C@H]1CC(N)=O ({Benzenesulfonyl(4-Cl,3-CF3)-γGlu}-G[Phg][Tle][β3hP]-NH2) | 380 nM | 5100 nM | –
CC(C)(C)[C@H](NC(=O)[C@H](Cn1ccnn1)NC(=O)CNC(=O)CC[C@H](NS(=O)(=O)c1ccc(Cl)c(C(F)(F)F)c1)C(=O)O)C(=O)N1CCC[C@H]1CC(N)=O | 32 nM | 8300 nM | –
CC(C)c1cn(C[C@H](NC(=O)CNC(=O)CC[C@H](NS(=O)(=O)c2ccc(Cl)c(C(F)(F)F)c2)C(=O)O)C(=O)N[C@H](C(=O)N2CCC[C@H]2CC(N)=O)C(C)(C)C)nn1 | 100 nM | 16000 nM | –
CC(C)(C)[C@H](NC(=O)[C@H](CCc1ccccc1)NC(=O)CNC(=O)CC[C@H](NS(=O)(=O)c1ccc(Cl)c(C(F)(F)F)c1)C(=O)O)C(=O)N1CCC[C@H]1CC(N)=O ({Benzenesulfonyl(4-Cl,3-CF3)-γGlu}-G[hPhe][Tle][β3hP]-NH2) | 80 nM | 4500 nM | –

Further molecules by falling IC50 [1], results first:

IC50 [1] | IC50 [2] | SMILES | Activity [3]
9.6 nM | 2700 nM | CC(C)(C)[C@H](NC(=O)[C@H](Cc1ccc(O)cc1)NC(=O)CNC(=O)CC[C@H](NS(=O)(=O)c1ccc(Cl)c(C(F)(F)F)c1)C(=O)O)C(=O)N1CCC[C@H]1CC(N)=O ({Benzenesulfonyl(4-Cl,3-CF3)-γGlu}-GY[Tle][β3hP]-NH2) | –
8.4 nM | 690 nM | CC(C)(C)[C@H](NC(=O)[C@H](Cc1ccc(I)cc1)NC(=O)CNC(=O)CC[C@H](NS(=O)(=O)c1ccc(Cl)c(C(F)(F)F)c1)C(=O)O)C(=O)N1CCC[C@H]1CC(N)=O ({Benzenesulfonyl(4-Cl,3-CF3)-γGlu}-G[Phe(4-I)][Tle][β3hP]-NH2) | –
6 nM | 8400 nM | CC(C)(C)[C@H](NC(=O)[C@H](Cc1cccnn1)NC(=O)CNC(=O)CC[C@H](NS(=O)(=O)c1ccc(Cl)c(C(F)(F)F)c1)C(=O)O)C(=O)N1CCC[C@H]1CC(N)=O | –
1.7 nM | 2700 nM | CC(C)(C)[C@H](NC(=O)[C@H](Cc1cccnc1)NC(=O)CNC(=O)CC[C@H](NS(=O)(=O)c1ccc(Cl)c(C(F)(F)F)c1)C(=O)O)C(=O)N1CCC[C@H]1CC(N)=O ({Benzenesulfonyl(4-Cl,3-CF3)-γGlu}-G[3Pal][Tle][β3hP]-NH2) | –
